# Source: ChEMBL document CHEMBL5523736, “The First Discovery of Marine Polyoxygenated Cembranolides as Potential Agents for the Treatment of Ulcerative Colitis” (J Med Chem, 2024)
# Active and inactive are the calls of the source. No cut-off for these calls is given here.
# How the values were obtained:
# RAW264.7 [1] = test: Antiinflammatory activity in mouse RAW264.7 cells assessed as inhibition of LPS-induced NO production incubated for 24 hrs; format: functional, cell-based; conditions: RAW264.7, 24 h
# RAW264.7 [2] = test: Antiinflammatory activity in mouse RAW264.7 cells assessed as inhibition of LPS-induced NO production at 20 uM incubated for 24 hrs relative to control; format: functional
# [3] = Cytotoxicity against mouse RAW264.7 cells assessed as cell viability at 20 uM incubated for 24 hrs by CCK8 assay relative to control; format: toxicity, cell-based; conditions: read-out: Activity
# RAW264.7 [4] = test: Antiinflammatory activity in LPS-induced mouse RAW264.7 cells assessed as reduction in IL-1beta mRNA expression level at 20 uM by qRT-PCR analysis; format: functional, cell-based
# RAW264.7 [5] = test: Antiinflammatory activity in LPS-induced mouse RAW264.7 cells assessed as reduction in IL-6 mRNA expression level at 20 uM by qRT-PCR analysis; format: functional, cell-based
# RAW264.7 [6] = test: Antiinflammatory activity in LPS-induced mouse RAW264.7 cells assessed as reduction in TNF-alpha mRNA expression level at 20 uM by qRT-PCR analysis; format: functional, cell-based
# RAW264.7 [7] = test: Antiinflammatory activity in LPS-induced mouse RAW264.7 cells assessed as reduction in iNOS mRNA expression level at 20 uM by qRT-PCR analysis; format: functional, cell-based
IC50 (RAW264.7 [1]) [µM],SMILES,inhibition at 20 µM (RAW264.7 [2]) [%],"viability at 24 h, 20 µM [3] [%]",Activity (RAW264.7 [4]),Activity (RAW264.7 [5]),Activity (RAW264.7 [6]),Activity (RAW264.7 [7])
13.1,C=C1C(=O)O[C@]2(C)CC[C@@H]1C[C@@H]1O[C@@]1(C)CC/C=C(\C)CC[C@H]2O,86.7,92.8,–,–,–,–
–,C=C1C(=O)O[C@]2(C)CC[C@@H]1C[C@H](OC(C)=O)[C@@]1(C)CC[C@H](O1)C(=C)CC[C@H]2OC(C)=O [GRANOSOLIDE B],56,102,–,–,–,–
1.59,C=C1C(=O)O[C@]2(C)CC[C@@H]1C[C@@H]1O[C@@]1(C)CC[C@@H]1O[C@]1(C)CC[C@H]2OC(C)=O,141,92.7,Active,Active,Active,Active
–,C=C1C(=O)O[C@]2(C)CC[C@@H]1C[C@H](O)[C@@]1(C)CC[C@H](O1)[C@](C)(O)CC[C@H]2OC(C)=O [QUERCIFORMOLIDE B],16.3,103,–,–,–,–
–,C=C1C(=O)O[C@]2(C)CC[C@@H]1C[C@H](OC(C)=O)[C@@]1(C)CC[C@H](O1)[C@](C)(O)CC[C@H]2O,25.8,109,–,–,–,–
–,C=C1CO[C@]2(C)CC[C@@H]1C[C@]1(O)O[C@@]1(C)CC/C=C(\C)CC[C@@H]2O,-146,82.3,–,–,–,–
–,C=C(C(=O)OC)[C@@H]1CC[C@@](C)(O)[C@@H](OC(C)=O)CC/C(C)=C/C/C=C(\C)[C@H](O)C1,55.7,89.2,–,–,–,–
3.61,C=C1C(=O)O[C@]2(C)CC[C@@H]1C[C@@H]1O[C@@]1(C)CC/C=C(\C)CC[C@@H]2O [SINULARIOLIDE],108,83.3,Active,Active,Active,Active
9.48,C=C1C(=O)O[C@]2(C)CC[C@@H]1C[C@H](O)[C@@]1(C)CC[C@H](OC(C)=O)[C@@](C)(CCC2=O)O1 [QUERCIFORMOLIDE A],85.1,94.1,–,–,–,–
–,C=C(C(=O)OC)[C@@H]1CC[C@@](C)(O)C(=O)CC/C(C)=C/CC[C@]2(C)O[C@H]2C1,35.7,116,–,–,–,–
–,C=C(C(=O)OC)[C@@H]1CC[C@]2(C)O[C@H]2CC[C@](C)(OO)/C=C/C[C@]2(C)O[C@@H]2C1,35.4,87.4,–,–,–,–
–,C=C1C(=O)O[C@]2(C)CC[C@@H]1C[C@@H]1O[C@@]1(C)CC[C@H](OC(C)=O)[C@@]1(C)CC[C@@H]2O1,36.7,103,–,–,–,–
–,C=C(C(=O)OC)[C@@H]1CC[C@@](C)(O)[C@@H](OC(C)=O)CC/C(C)=C/CC[C@]2(C)O[C@H]2C1,-4.67,104,–,–,–,–
10.1,C=C1C(=O)O[C@]2(C)CC[C@@H]1C[C@@H]1O[C@@]1(C)C/C=C/[C@@](C)(O)CC[C@H]2OC(C)=O,99.5,87.9,–,–,–,–
–,C=C(C(=O)OC)[C@@H]1CC[C@@](C)(O)[C@@H]2CC[C@@](C)(O2)[C@@H](OC(C)=O)CC[C@]2(C)O[C@H]2C1 [DENDRONPHOLIDE G],-49,83,–,–,–,–
